Here are results for one compound from patent publication US20070082903A1, “Remedy for rheumatoid arthritis” (priority 2003, published 2007).

Like-named read-outs stand apart in the source and are kept apart here.

The subject of series [1] is rats with adjuvant arthritis. The settings on record: cited from earlier work.
Series [2] can be described thus: repeated administration test on healthy male Caucasians (7 days), serum concentration by LC-MS/MS. The series is classed as in vivo, human. The settings on record: for AUC(0-t): serum, oral, read-out: AUC0-24 at the steady state. As for the experimental part: A repeated administration test on healthy male Caucasians of 18 to 50 years old was carried out. Using the SMP-114 tablets and placebo tablets, 80 mg or 120 mg of each of the placebo and SMP-114 was orally administered once a day for 7 days by a placebo controlled double-blind method (at each dose, 8 cases of SMP-114 administration and 2 cases of placebo administration: 20 subjects in total).
The SMP-114 concentration in serum was measured by a LC-MS/MS method by employing the following pretreatment and measuring conditions.
1) To each of the standard sample solutions for calibration curve, the QC sample and the samples to be analyzed was added 10 mL of an internal standard solution (d5-SMP-114 5 ng/mL), and stirred.
2) To the resulting mixture were added 1 mL of 100 mmol/L ammonium acetate buffer (pH 4.0) and then 6 mL of diethyl ether, and stirred for 10 minutes, followed by centrifugation at 4° C. and 3000 rpm for 10 minutes.
3) The supernatant was transferred to a glass tube and concentrated to dryness in a nitrogen stream (40° C.) in an aluminum-blocked thermostatic chamber.
4) To the residue was added 120 μL of 50 vol % acetonitrile and the residue was redissolved with an ultrasonic bath and a Vortex mixer.
5) The solution obtained by the redissolution was transferred to a filter and centrifuged at 5000 rpm for 3 minutes.
6) The filtrate was transferred to an auto-sampler vial to obtain a sample solution for measurement.
LC-MS/MS measurement was carried out under the following conditions. However, parameters (e.g. gas volume and collision voltage) whose optimum values were variable depending on the condition of a mass spectrometer were properly changed.
Mobile phase: eluent A; 0.3 vol % acetic acid eluent B; acetonitrile
• Flow rate: 0.2 ml/min • Analytical column: Puresil C18, 2.1 mm i.d.×150 mm, […] (Waters) • Auto-sampler tray: 4° C. • Column temperature: 35° C. • Valve switching: 0-1.5 min. discard, 1.5-9.0 min. ion source for SMP-114, 9.0-15.0 min. discard • Injecting volume: […] MS/MS Conditions • Ionization method: electro-ion spray method, positive mode • MS/MS mode: SRM (selected reaction monitoring) • Monitor ion: SMP-114 Q1 m/z 395.1→Q3 m/z 199.0 (±25 eV) d5-SMP-114 Q1 m/z 400.2→Q3 m/z 204.0 (−25 eV) • Total scan time: 0.6 second (SMP-114 and d5-SMP-114) • Ionization voltage: 4.5 kV for SMP-114 • Sheath gas: 70 psi (nitrogen gas) • Auxiliary gas: 30 units (nitrogen gas) • Capillary tube temperature: 230° C. • Collision gas: 2.1-2.2 mT (argon) • Multiplier: 1300 V

For the compound `C[C@@H](c1ccc(-c2ccccc2)c(F)c1)c1cc(/N=C(/N)N2CCOCC2)on1` [SMP-114, 3-[(1S)-1-(2-fluorobiphenyl-4-yl)ethyl]-5-{[amino(morpholin-4-yl)methylene]amino}isoxazole], the “minimum effective amount for antiarthritic effect” value in series [1] (once-a-day oral administration) is on record as 2.5 mg/kg. Further, the antiarthritic effect entry in series [1] (rats with adjuvant arthritis) is “antiarthritic effect”. For the same compound, in series [2] (80 mg or 120 mg oral once a day for 7 days, healthy male Caucasians), the “side effects undesirable with respect to tolerance” value is reported as “observed at neither of the doses”. Moreover, the AUC(0-t) in series [2] (human, 80 mg treated group, once a day for 7 days, healthy male Caucasians) was found to be 10600 ng·h/mL; in series [2] (human, 120 mg treated group, once a day for 7 days, healthy male Caucasians), 16700 ng·h/mL. The accumulative property result in series [2] (once a day for 7 days, healthy male Caucasians) is given as “no accumulative property”. For the same compound, the tolerance entry in series [2] (repeated once-a-day dose of about 120 mg or less, human) is reported as “satisfactory”.
